Test results published in patent US11485728B2, “Small molecules for the treatment of autoimmune diseases and cancer” (Athos Therapeutics, Inc., priority 2020, dated 2022).

Columns and labels:
[1] = tested on: C57BL/6 mice with TNBS colitis; experiment: TNBS colitis in C57BL/6 mice; assay type: in vivo; design: TNBS Efficacy / Clinical Score / Histological Score / Colon Length: key to the marks not given beside the values
Experimental: C57BL/6 mice (20-22 grams) were fed ad lib and assigned to 4 different groups (n=8/group). After a 72 hr acclimation period the test group groups received 25 mg/kg of test compound PO (gavage) in vehicle daily. A control group received vehicle alone. After 24 hrs, mice were weighed and TNBS was injected intra-colonically using 5 cm of polyethylene (¼ inch) tubing. Mice were then treated with the test compounds and weighed daily for 4 days. Mice were sacrificed on day 4 and clinical score was assessed. Intestinal tissue for and blood were also collected. Tissues were either flash frozen and kept in −80° C. for RNA and protein isolation or placed in 10% formalin solution for future histological analysis. Blood was spun at 5K rpm for 5 min and serum was collected and kept at −20° C. for multiplex cytokine analysis.

[2] = Dosing formulation stability (physical, potency, impurity profile); assay type: physicochemical; details: for Conc. (potency) / Observation (physical state): dosing formulation
Experimental: 5 mg/mL of test compound was formulated with 10% Dimethylacetamide (DMA), 30% Propylene Glycol, 35% PEG-300, 25% water (H2O). The formulation solution was stored at 4° C. and 25° C. The samples were retrieved at the following time points: 1 day, 3 days, 5 days, 7 days, 10 days and 14 days. The sample retrieved at each time point was examined visually observation of the physical state (texture and color) prior to sample preparation for analysis for physical stability. For chemical stability, the sample was diluted 1:250 dilution with acetonitrile (ACN) for potency analysis, and to 100 ug/mL final solution for impurity profile. The sample were prepared in triplication for potency analysis. The samples were then injected to HPLC for the determination of test compound concentration and its impurity profile. An Agilent 1260 Infinity II Lab LC Series HPLC system was used including 1260 Quat pump, 1260 vial autosampler, ICC column oven, and 1260 DAD WR detector. The chromatographic separation was achieved by a Phenomenex Synergi Polar RP column (150×4.6 mm, 4 μm, 80 Å). The flow rate was 1 mL/min and the detection was set at 254 nm. Injection volume was 10 uL, otherwise specified. The mobile phase consisted A, water with 0.1% trifluoroacetic acid and B, acetonitrile with 0.1% trifluoroacetic acid. […] For impurity profile, the gradient was A/B (99:1) from 0 minute; to A/B (1:99) from 0 to 15 minutes; A/B (1:99) from 15 to 18 minutes; to A/B (99:1) from 18 to 18.1 minutes; A/B (99:1) from 18.1 to 20 minutes. Data acquisition and peak integrations were obtained by OpenLAB CDS Version 2.4 (Agilent) operating with Windows (Microsoft).
Physical and chemical stability of dosing formulation lead to the investigation of potential impurities upon storage at various temperatures. The stability results can be used to assess the appropriate storage conditions and shelf life of a formulation, and can provide important information for drug formulation development, nonclinical, and clinical studies, especially on-going efficacy studies. The dosing formulation in these experiments contained 5 mg/mL test compound 1, with 10% Dimethylacetamide (DMA), 30% Propylene Glycol, 35% PEG-300, 25% water (H2O). The dosing formulation was stored at 4° C. and 25° C. The samples were retrieved at the following time points: 1 day and 3 days. The dosing formulation was diluted and analyzed for potency and impurity profile using reverse phase high pressure liquid chromatography. The impurity profile was described as the relative percent peak area of each peak detected.

SMILES: COc1cc2c(NC3CCOCC3)nc(N3CCC(F)(F)CC3)nc2cc1OCCCN1CCCC1 [Compound 2, 2-(4,4-difluoropiperidin-1-yl)-6-methoxy-7-(3-(pyrrolidin-1-yl)propoxy)-N-(tetrahydro-2H-pyran-4-yl)quinazolin-4-amine]
- colitis associated damage in the intestine (in words) ([1]; 25 mg/kg PO daily): strong inhibitor of colitis associated damage in the intestine
- Clinical Score ([1]; 25 mg/kg PO daily, day 4): ++
- Colon Length ([1]; 25 mg/kg PO daily, day 4): ++
- Histological Score ([1]; 25 mg/kg PO daily, day 4): ++
- TNBS Efficacy ([1]; 25 mg/kg PO daily, day 4): ++
- histological scores (in words) ([1]; vs vehicle treated controls): positive outcomes

SMILES: COc1cc2c(NC3CCS(=O)(=O)CC3)nc(N3CCC(F)(F)CC3)nc2cc1OCCCN1CCCC1 [Compound 1, 4-((2-(4,4-difluoropiperidin-1-yl)-6-methoxy-7-(3-(pyrrolidin-1-yl)propoxy)quinazolin-4-yl)amino)tetrahydro-2H-thiopyran 1,1-dioxide]
- Impurity Peak RRT 0.978, relative percent peak area ([2]; 4° C., day 0): 0.14%
- Peak RRT 1.00 (Compound 1), relative percent peak area ([2]; 4° C., day 0): 99.86%
- Impurity Peak RRT 0.978, relative percent peak area ([2]; 4° C., day 1): 0.14%
- Peak RRT 1.00 (Compound 1), relative percent peak area ([2]; 4° C., day 1): 99.86%
- Impurity Peak RRT 0.978, relative percent peak area ([2]; 4° C., day 3): 0.31%
- Peak RRT 1.00 (Compound 1), relative percent peak area ([2]; 4° C., day 3): 99.69%
- Impurity Peak RRT 0.978, relative percent peak area ([2]; 25° C., day 0): 0.14%
- Peak RRT 1.00 (Compound 1), relative percent peak area ([2]; 25° C., day 0): 99.86%
- Impurity Peak RRT 0.978, relative percent peak area ([2]; 25° C., day 1): 0.13%
- Peak RRT 1.00 (Compound 1), relative percent peak area ([2]; 25° C., day 1): 99.87%
- Impurity Peak RRT 0.978, relative percent peak area ([2]; 25° C., day 3): 0.30%
- Peak RRT 1.00 (Compound 1), relative percent peak area ([2]; 25° C., day 3): 99.70%
- Conc. (potency) ([2]; 4° C., day 0): 5560 µg/mL
- Observation (physical state) ([2]; 4° C., day 0): Clear solution
- Conc. (potency) ([2]; 4° C., day 1): 5570 µg/mL
- Observation (physical state) ([2]; 4° C., day 1): Clear solution
- Conc. (potency) ([2]; 4° C., day 3): 5650 µg/mL
- Observation (physical state) ([2]; 4° C., day 3): Clear solution
- Conc. (potency) ([2]; 25° C., day 0): 5560 µg/mL
- Observation (physical state) ([2]; 25° C., day 0): Clear solution
- Conc. (potency) ([2]; 25° C., day 1): 5470 µg/mL
- Observation (physical state) ([2]; 25° C., day 1): Clear solution
- Conc. (potency) ([2]; 25° C., day 3): 6090 µg/mL
- Observation (physical state) ([2]; 25° C., day 3): Clear solution
